Data taken from patent US5032594A, “Tricyclic fused pyrimidine derivatives, their production and use” (Takeda Chemical Industries, Ltd., priority 1989, dated 1991).
Like-named read-outs stand apart in the source and are kept apart here.

How the values were obtained:
A2 receptor = target: T1, A2 receptor (Rattus norvegicus, UniProt P30543); experiment: A2 receptor antagonism (inhibition of 3H-NECA binding, rat corpus striatum membranes); conditions: in presence of 50 nM cyclopentyladenosine, read-out: A2 receptor (Ki, μM), binding-inhibition constant
T1 construct: corpus striatun (A2 receptor); from tissue; host or cells: rat corpus striatum membranes
Procedure: (§1) Preparation of membranes was performed in accordance with the method of Burns et al. described in Proc. Natl. Acad. Sci., 77, 5547 (1980). More specifically, a rat was decapitated, and the cerebral cortex (A1 receptor) or corpus striatun (A2 receptor) was suspended using Polyton in a Tris-HCl buffer solution of pH 7.7 (50 mM, 20 ml). This suspension was centrifuged at 48,000 g for 10 minutes, and the pellet was resuspended and centrifuged in a similar manner. The pellet was resuspended in a Tris-HCl buffer solution (50 mM), to which was added adenosine deaminase (2U/ml). The mixture was incubated at 37° C. for 30 minutes. This suspension was centrifuged and the pellet was stored at -20° C.
(§2) Using the above-mentioned pellet, adenosine antagonism (A1 and A2) was examined.
The experiment was performed analogously to that for A1 receptor antagonism. Using ^3 H-adenosine-5'-ethylcarboxamide (^3 H-NECA; about 0.1 μCi) as ligand, the experiment was conducted in the presence of 50 nM of cyclopentyladenosine. The nonspecific binding amount was measured in the presence of 10^-4 M of cyclopentyladenosine.

A1 receptor = target: T2, A1 receptor (Rattus norvegicus, UniProt P25099); experiment: A1 receptor antagonism (inhibition of 3H-cyclohexyladenosine binding, rat cerebral cortex membranes)
T2 construct: a rat was decapitated, and the cerebral cortex (A1 receptor); from tissue; host or cells: rat cerebral cortex membranes
T2 sequence (P25099 1-326): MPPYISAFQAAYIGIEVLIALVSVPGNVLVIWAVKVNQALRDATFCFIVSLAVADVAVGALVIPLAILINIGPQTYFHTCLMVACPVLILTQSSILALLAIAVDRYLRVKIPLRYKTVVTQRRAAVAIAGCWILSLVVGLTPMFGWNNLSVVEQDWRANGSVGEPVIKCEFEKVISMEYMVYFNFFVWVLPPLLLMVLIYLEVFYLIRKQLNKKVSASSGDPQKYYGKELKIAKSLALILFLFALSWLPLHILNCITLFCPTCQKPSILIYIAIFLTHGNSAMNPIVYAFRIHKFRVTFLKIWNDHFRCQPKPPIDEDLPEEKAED
Procedure: as §1, §2
The above-mentioned pellet was thawed at room temperature and suspended in a Tris-HCl buffer solution. To the suspension (0.9 ml) were added ^3 H-cyclohexyladenosine (^3 H-CHA)(ca. 0.05 μCi, 0.1 ml) and the test drug (10 μl), and the mixture was incubated at 25° C. for 60 minutes. The reaction mixture was subjected to filtration with GF/B filter. The filter was washed four times with a Tris-HCl buffer solution. The radioactivity on the filter was measured by liquid scintillation. The nonspecific binding amount was measured in the presence of 10^-5 M of L-phenyl isopropyladenosine.

[1] = test system: Retention deficit induced by scopolamine; experiment: Passive avoidance task, retention deficit induced by scopolamine; type: in vivo, mice; conditions: scopolamine 1 mg/kg i.p.; for recovery of memory: orally administered 5% gum arabic suspension, in words; for Avoidance Time (%): p.o., 3 mg/kg, percent change rate relative to control (100), P < 0.05
Text: Actions of the compound (8) obtained in Working Example 8 and the compound (9) obtained in Working Example 9 on amelioration of memory impairment was studied using the passive avoidance task shown below. Five-week old male mice were placed first in the light chamber of a passive avoidance learning apparatus consisting of light and dark chambers. The mice immediately moved into the dark chamber, then an unescapable electric shock (0.5 mA, 3 sec.) was applied to the animals. These animals retained for several weeks the memory that they received the electric shock. This memory retention was disrupted by the following procedure, and the effect of the compounds (8) and (9) was tested. Thirty minutes prior to the application of electric shock, these animals were each administered with scopolamine (1 mg/kg, i.p), then these mice lost the memory of this experience of an electric shock.
On the following day, a retention recovery test was conducted. These mice were again placed in the light chamber of the passive avoidance apparatus and the time until the animals moved into the dark chamber (avoidance time) was measured. These mice which lost the memory of the experience of an electric shock moved again into the dark chamber in 10 to 20 seconds. […] The effects of these test compounds were examined by comparing the average value (11-15 animals/group) of the period of time during which the mice stayed in the light chamber with that of the control group (administered only a suspension of 5% gum arabic containing no test compound). The results were expressed by the percent change rate relative to the mean value (100) in the control group (Table 5).

[2] = test system: motility depression (depression of consciousness level) associated with cerebral ischemia; experiment: Recovery of motility after experimental cerebral ischemia; type: in vivo, Wistar rats; conditions: for Time to reappearance of spontaneous motility: control 81.5 ± 13.3
Text: Experimental cerebral ischemia was produced in accordance with the method of Pulsinelli et al. (Stroke 10, 267-272, 1979), using Wistar rats 8-week old. On the first day of the experiment, the rats were anesthetized with pentobarbital, and their occipital skin and muscle were incised along the median line, then their vertebral arteries were cauterized bilaterally, and their ventral necks were incised, the bilateral common carotid arteries were separated from the surrounding tissue, to which a thread was applied. On the next day, the common carotid arteries were drawn out by the use of this thread under anaesthetic conditions, and occluded with clips for 30 minutes. By this treatment, serious cerebral ischemia was induced. After 30 minutes' occlusion, the clip was removed to allow the cerebral circulation to resume. Time to recovery of righting reflex and time to reappearance of spontaneous motor activity were measured on individual test animals. The test compound was orally administered to the animals as a 5% suspension in gum arabic one hour before causing the cerebral ischemia and immediately after the resumption of cerebral circulation. The control group was orally administered with only a 5% gum arabic suspension.

[3] = test system: impaired learning after cerebral ischemia; experiment: Passive avoidance learning impaired after cerebral ischemia; type: in vivo, Wistar rats
Procedure: As in the case of the above test (3-1), Wistar rats were used to produce an experimental model for cerebral ischemia. In this experiment, the time during which cerebral ischemia was caused in the animals was 5 minutes. By this treatment, a passive avoidance learning impairments was induced. The passive avoidance learning was tested in accordance with the method in Experiment 1. The test compound was suspended in a 5% gum arabic vehicle. Test animals were administered with this suspension three times, i.e. one hour prior to causing cerebral ischemia, two hours prior to a passive avoidance learning and two hours prior to the test. The control group was administered with only a 5% gum arabic suspension.

[4] = rat cerebral cortex, 3H-CHA, 25° C., 60 minutes, read-out: A1 receptor (Ki, μM), binding-inhibition constant

T1 sequence (P30543 whole entry): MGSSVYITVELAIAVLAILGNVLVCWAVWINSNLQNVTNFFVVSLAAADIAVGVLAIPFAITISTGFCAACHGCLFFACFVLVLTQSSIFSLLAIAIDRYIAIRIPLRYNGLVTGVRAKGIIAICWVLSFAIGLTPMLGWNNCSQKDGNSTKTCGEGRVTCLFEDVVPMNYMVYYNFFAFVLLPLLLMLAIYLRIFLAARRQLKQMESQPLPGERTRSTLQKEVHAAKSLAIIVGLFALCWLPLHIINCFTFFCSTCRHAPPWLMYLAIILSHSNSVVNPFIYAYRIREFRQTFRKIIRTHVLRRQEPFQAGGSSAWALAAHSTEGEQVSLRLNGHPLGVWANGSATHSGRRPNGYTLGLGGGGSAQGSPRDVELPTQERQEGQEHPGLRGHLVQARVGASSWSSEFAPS

Ki (A2 receptor) [µM]	Ki (A1 receptor; [4]) [µM]	SMILES	other results
0.42	–	CCCn1c(=O)[nH]c2nn3cc[nH]c3c2c1=O [compound 30]	Ki (A1 receptor): 0.42 µM
4.5	0.67	CCCCn1c(=O)n(Cc2ccccc2)c(=O)c2c3n(nc21)CCN3 [compound 5]	–
2.9	0.14	CCCn1c(=O)c2c3n(nc2n(Cc2ccc(Cl)cc2)c1=O)CCN3 [compound 2]	–
1.1	0.2	CCCCn1c(=O)n(Cc2ccccc2)c(=O)c2c1nn1cc[nH]c21 [compound 12]	–
> 0.5	0.053	CCCCOc1ccc(-c2cn3nc4c(c(=O)n(CCC)c(=O)n4Cc4ccccc4)c3[nH]2)cc1 [compound 24]	–
> 0.5	0.58	CCCn1c(=O)c2c(nn3cc(-c4ccc(C)cc4)[nH]c23)n(Cc2ccccc2)c1=O [compound 25]	–
> 0.5	0.58	CCCn1c(=O)c2c(nn3cc(-c4ccccc4Cl)[nH]c23)n(Cc2ccccc2)c1=O [compound 27]	–
0.46	0.098	CCCn1c(=O)c2c(nn3cc[nH]c23)n(Cc2cccc(Cl)c2)c1=O [compound 10]	–
0.35	0.0051	CCCCc1cn2nc3c(c(=O)n(CCC)c(=O)n3Cc3ccccc3)c2[nH]1 [compound 17]	–
–	–	CCCn1c(=O)c2c(nn3cc[nH]c23)n(Cc2ccc(Cl)cc2)c1=O [Working Example 9]	recovery of memory [1]: recovered the memory
0.19	0.027	CCCn1c(=O)c2c(nn3c4c([nH]c23)CCCC4)n(Cc2ccccc2)c1=O [compound 19]	–
6.5	0.27	CCCn1c(=O)c2c3n(nc2n(Cc2ccccc2Cl)c1=O)CCN3 [compound 4]	–
0.43	0.024	CCCn1c(=O)c2c(nn3c(C)c(C)[nH]c23)n(Cc2ccccc2)c1=O [compound 16]	–
1	0.092	CCCn1c(=O)c2c(nn3cc[nH]c23)n(Cc2ccccc2Cl)c1=O [compound 11]	–
0.26	0.034	CCCn1c(=O)c2c(nn3cc[nH]c23)n(Cc2ccccc2)c1=O [compound 8]	Avoidance Time (%) [1]: 243%
0.28	0.01	CCCn1c(=O)c2c(nn3cc(-c4ccccc4)[nH]c23)n(Cc2ccccc2)c1=O [compound 15]	–
–	–	CCCn1c(=O)c2c(nn3cc[nH]c23)n(Cc2ccccc2)c1=O [Working Example 8, 1-Benzyl-3-propyl-1,2,3,4-tetrahydro-5H-imidazo[2',1':5,1]pyrazolo[3,4-d]pyrimidine-2,4-dione]	Time to recovery of righting reflex ([2]; 3 mg/kg oral, 30 minutes occlusion, average ± standard error, control 29.8 ± 5.9): 21.0 ± 3.2 min; Time to reappearance of spontaneous motility ([2]; 3 mg/kg oral, 30 minutes occlusion, average ± standard error): 55.2 ± 6.5 min; Time to recovery of righting reflex ([2]; 10 mg/kg oral, 30 minutes occlusion, average ± standard error, control 29.8 ± 5.9): 16.7 ± 2.6 min; Time to reappearance of spontaneous motility ([2]; 10 mg/kg oral, 30 minutes occlusion, average ± standard error, P < 0.05): 43.8 ± 4.7 min; Time to recovery of righting reflex ([2]; in words): tended to shorten the time to recovery of righting reflex dosedependently; time to reappearance of spontaneous motor activity ([2]; in words): shortened the time to reappearance of spontaneous motor activity; Avoidance time ([3]; 3 mg/kg and 10 mg/kg, in words): prolonged the avoidance time, in the doses of 3 mg/kg and 10 mg/kg, dose-dependently; Avoidance time ([3]; 3 mg/kg, 5 minutes ischemia, median, control 17.5): 152.8 s; Avoidance time ([3]; 10 mg/kg, 5 minutes ischemia, median, control 17.5, P < 0.05): 285.9 s; recovery of memory [1]: recovered the memory
0.5	0.53	CCCn1c(=O)c2c(nn3cc(-c4ccccc4OC)[nH]c23)n(Cc2ccccc2)c1=O [compound 23]	–
0.37	0.05	CCCn1c(=O)c2c(nn3cc[nH]c23)n(Cc2ccc(Cl)cc2)c1=O [compound 9]	Avoidance Time (%) [1]: 262%
4.2	0.19	CCCn1c(=O)c2c3n(nc2n(Cc2cccc(Cl)c2)c1=O)CCN3 [compound 3]	–
2.5	0.11	CCCn1c(=O)c2c(nn3cc[nH]c23)n(CCCc2ccccc2)c1=O [compound 14]	–
39	18	CCCCn1c(=O)[nH]c(=O)c2c3n(nc21)CCN3 [compound 29]	–
0.21	0.0047	CCCn1c(=O)c2c(nn3cc(-c4ccc(OC)cc4)[nH]c23)n(Cc2ccccc2)c1=O [compound 22]	–
0.12	0.0069	CCCn1c(=O)c2c(nn3cc(-c4cccc(OC)c4)[nH]c23)n(Cc2ccccc2)c1=O [compound 21]	–
3.3	0.12	CCCn1c(=O)c2c3n(nc2n(Cc2ccccc2)c1=O)CCN3 [compound 1]	–
16	0.53	CCCn1c(=O)c2c(nn3cc[nH]c23)n(CCc2ccccc2)c1=O [compound 13]	–
> 0.5	0.037	CCCn1c(=O)c2c(nn3cc(-c4cccc(Cl)c4)[nH]c23)n(Cc2ccccc2)c1=O [compound 26]	–
